Experimental data as given in ChEMBL document CHEMBL1201862, “PubChem BioAssay data set” (2004).
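Each compound was tested at five concentrations against cells in 96-well plates for 48 hours. GI50 = concentration required for 50% inhibition of growth.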 Active and inactive are the calls of the source. No stated cut-off is given here; in the data, active = GI50 up to about 1.1 µM and inactive = higher.

Assays:
Experiment in all cases: DTP human tumour cell line panel, 48 h
[1] = test system: SF-539
[2] = test system: RXF 393
[3] = test system: A549
[4] = test system: LOX IMVI
[5] = test system: SF-295
[6] = test system: EKVX
[7] = test system: MDA-MB-435
[8] = test system: OVCAR-5
[9] = test system: HCT-116
[10] = test system: NCI-H23
[11] = test system: SK-MEL-28
[12] = test system: NCI-H226
[13] = test system: SK-MEL-5
[14] = test system: Malme-3M
[15] = test system: HCC 2998
[16] = test system: 786-0
[17] = test system: HT-29
[18] = test system: TK-10
[19] = test system: OVCAR-8
[20] = test system: SN12C

Measured: GI50

Cc1nc(Nc2ccc(Cl)c(Cl)c2)sc1C(=O)/C=C/c1ccc2c(c1)OCO2
inactive: [1] 23.7 µM | [2] 15.9 µM | [3] 22.3 µM | [4] 19.4 µM | [5] 20 µM | [6] 34.5 µM | [7] 20.5 µM | [8] 88.7 µM | [9] 20.6 µM | [10] 20 µM | [11] 31.7 µM | [12] 25.9 µM | [13] 33.4 µM | [14] 31.9 µM | [15] 30.2 µM | [16] 20.2 µM | [17] 36.8 µM | [18] 24.5 µM | [19] 23.2 µM

CC(=O)OCC1OC(NC(=S)Nn2c(=O)[nH]c3ccccc3c2=O)C(OC(C)=O)C(OC(C)=O)C1OC(C)=O (stereo unspecified)
inactive: [1] > 100 µM | [2] > 100 µM | [3] > 100 µM | [4] > 100 µM | [5] > 100 µM | [6] > 100 µM | [7] > 100 µM | [8] > 100 µM | [9] > 100 µM | [20] > 100 µM | [10] > 100 µM | [11] > 100 µM | [12] > 100 µM | [13] > 100 µM | [14] > 100 µM | [15] > 100 µM | [16] > 100 µM | [17] > 100 µM | [19] > 100 µM

CCOC(=O)Nn1c(CC#N)nnc1Cc1ccccc1
inactive: [1] > 100 µM | [2] > 100 µM | [3] > 100 µM | [5] > 100 µM | [7] > 100 µM | [8] > 100 µM | [9] > 100 µM | [20] > 100 µM | [10] > 100 µM | [11] > 100 µM | [12] > 100 µM | [13] > 100 µM | [14] > 100 µM | [15] > 100 µM | [16] > 100 µM | [17] > 100 µM | [18] > 100 µM | [19] > 100 µM

Cc1ccc(S(=O)(=O)CC2CCCn3c2c(C#N)c2ccccc23)cc1 (stereo unspecified)
inactive: [1] > 100 µM | [2] > 100 µM | [3] > 100 µM | [4] > 100 µM | [5] > 100 µM | [6] > 100 µM | [7] > 100 µM | [8] > 100 µM | [9] > 100 µM | [20] > 100 µM | [10] > 100 µM | [11] > 100 µM | [12] > 100 µM | [13] > 100 µM | [15] > 100 µM | [16] > 100 µM | [17] > 100 µM | [18] > 100 µM | [19] > 100 µM

CC(Oc1ccccc1Cl)C(=O)NN1C(=O)CSC1c1ccccc1 (stereo unspecified)
inactive: [1] > 100 µM | [2] 61.2 µM | [3] 62.7 µM | [4] > 100 µM | [5] 68.7 µM | [6] > 100 µM | [7] 75.3 µM | [8] > 100 µM | [9] 34.9 µM | [20] 74.6 µM | [10] > 100 µM | [11] > 100 µM | [12] > 100 µM | [13] > 100 µM | [15] > 100 µM | [16] 74.5 µM | [17] > 100 µM | [18] > 100 µM | [19] > 100 µM

O=C(CC(O)(C(F)(F)F)C(F)(F)F)C(c1ccccc1)C(O)(C(F)(F)F)C(F)(F)F (stereo unspecified)
inactive: [1] 17.1 µM | [2] 5.14 µM | [3] 22.2 µM | [4] 55.7 µM | [5] 40 µM | [6] 18.4 µM | [7] 47.3 µM | [8] > 100 µM | [9] 16.4 µM | [10] 6.47 µM | [11] 25.4 µM | [12] 42.8 µM | [13] 18.8 µM | [14] 50.4 µM | [15] 9.1 µM | [16] 31.3 µM | [17] 15.2 µM | [18] 26.3 µM | [19] 14.8 µM

O=S(=O)(c1ccccc1)n1c2ccc(Br)cc2c2nc3ccccc3nc21
inactive: [2] > 100 µM | [3] > 100 µM | [4] > 100 µM | [5] > 100 µM | [7] > 100 µM | [8] > 100 µM | [9] > 100 µM | [20] > 100 µM | [10] > 100 µM | [11] > 100 µM | [12] 47.9 µM | [13] > 100 µM | [14] > 100 µM | [15] > 100 µM | [16] > 100 µM | [17] > 100 µM | [18] > 100 µM | [19] > 100 µM

COc1ccc(-n2nnc(C(N)=O)c2O)cc1
inactive: [2] > 100 µM | [3] > 100 µM | [4] > 100 µM | [5] > 100 µM | [6] > 100 µM | [7] > 100 µM | [8] > 100 µM | [9] > 100 µM | [20] > 100 µM | [10] > 100 µM | [11] > 100 µM | [12] > 100 µM | [13] > 100 µM | [14] 91 µM | [15] > 100 µM | [16] > 100 µM | [17] > 100 µM | [19] > 100 µM

C=C1[C@H](OC(=O)C(C)C)[C@]23CC4(O)[C@@H]5[C@@]6(C)CCC[C@]57C([C@@H]2C[C@@]1(O)[C@H](O)[C@@H]73)N4C6
inactive: [1] > 100 µM | [2] > 100 µM | [3] > 100 µM | [4] > 100 µM | [5] > 100 µM | [6] > 100 µM | [7] > 100 µM | [8] > 100 µM | [9] > 100 µM | [10] > 100 µM | [11] > 100 µM | [12] > 100 µM | [13] > 100 µM | [14] > 100 µM | [15] 27 µM | [16] > 100 µM | [17] > 100 µM | [18] > 100 µM | [19] > 100 µM

O=NNc1cnc(O)nc1O
inactive: [1] > 100 µM | [2] > 100 µM | [3] > 100 µM | [4] > 100 µM | [5] > 100 µM | [6] > 100 µM | [7] > 100 µM | [9] > 100 µM | [20] > 100 µM | [10] > 100 µM | [11] > 100 µM | [12] > 100 µM | [13] > 100 µM | [14] > 100 µM | [15] > 100 µM | [16] > 100 µM | [18] > 100 µM | [19] > 100 µM
